≈ marks a conversion by molar mass, not a printed value.
Legend:
cKIT = cKIT (Homo sapiens, UniProt P10721); assay: KIT-WT LanthaScreen binding assay (Kd); settings: single eight-point titrations, TR-FRET LanthaScreen Binding Assay; R^2 of fit in parentheses; read-out: Enzymatic Assay KIT (Kd)
Experimental: The TR-FRET-based LanthaScreen Binding Assay was performed to determine Kd values of synthesized derivatives against cKIT.
Subsequently, 8 µL of kinase anti-GST antibody mixture was added, followed by incubation at 4 °C for 30 min in a pre-cooled, humidified box to minimize edge effects. The reaction was initiated by adding 5 µL of tracer working solution and mixed on a Bioshake 5000 microplate shaker (Q Instruments, Jena, Germany). […] Kd values were calculated from sigmoidal dose-response curves using Scigilian Analyze software version 5.8.5.15 (Scigilian, Montreal, QC, Canada).

[1] = test system: Ba/F3 cells engineered to be dependent on CSF1R; assay: Cell viability assay with Ba/F3-hCSF1R cells; assay type: cell-based
Experimental: (§1) Given the promising enzymatic activity of the synthesized derivatives, cellular assays were performed using Ba/F3 cells engineered to depend on constitutively active CSF1R. […] We have also previously observed a low correlation between enzymatic and cellular activities, which may arise from the enzymatic protein construct not accurately mimicking the active conformation of CSF1R in a cellular context.
(§2) Performed as reported previously.

[2] = test system: Ba/F3 cells engineered to be dependent on CSF1R but added additional IL-3; assay: Cell viability assay with Ba/F3-hCSF1R cells with added IL-3; assay type: cell-based; settings: Mus musculus, BaF3; Ba/F3 CSF1R cells with additional IL-3; read-out: Cellular Assay IC50 (μM), Ba/F3 IL-3
Experimental: as §1, §2

Kinetic solubility = assay type: physicochemical; settings: aqueous buffer, kinetic from dmso stock; spectrophotometric, pH 7.4 in HEPES buffer
Experimental: (§3) The aqueous solubility of the compounds and metabolic stability under oxidative conditions was performed as described previously.

[3] = Microsomal stability, mouse liver microsomes; assay type: in vitro ADME; settings: mouse liver microsome
Experimental: as §3

AXL = AXL (Homo sapiens, UniProt P30530); assay: Kinase panel; assay type: biochemical
Experimental: (§4) Ta b l e S 1. Inhibition (%) by compound 14c towards di7erent kinases. Values are average of two
(§5) measurements at 1000 nM test concentration. The ATP concentration was equal to KM.
(§6) Kinase ATP conc. % inhibition

BLK = BLK (Homo sapiens, UniProt P51451); assay: Kinase panel; assay type: biochemical
BLK, sequence (P51451 whole entry, species assumed): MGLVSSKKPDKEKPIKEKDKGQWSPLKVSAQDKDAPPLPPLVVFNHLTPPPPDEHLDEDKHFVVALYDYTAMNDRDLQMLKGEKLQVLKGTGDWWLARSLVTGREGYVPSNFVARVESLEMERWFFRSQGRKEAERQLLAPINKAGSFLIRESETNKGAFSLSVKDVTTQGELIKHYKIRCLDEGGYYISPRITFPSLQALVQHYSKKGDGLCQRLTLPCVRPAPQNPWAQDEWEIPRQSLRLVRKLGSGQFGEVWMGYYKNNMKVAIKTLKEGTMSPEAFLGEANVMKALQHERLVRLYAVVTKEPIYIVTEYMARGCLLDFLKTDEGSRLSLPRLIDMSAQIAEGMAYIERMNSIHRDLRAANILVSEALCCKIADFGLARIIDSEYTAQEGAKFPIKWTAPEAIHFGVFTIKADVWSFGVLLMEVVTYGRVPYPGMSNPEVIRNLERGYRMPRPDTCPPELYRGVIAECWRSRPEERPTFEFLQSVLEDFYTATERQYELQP
Experimental: as §4, §5, §6

CLK1 = CLK1 (Homo sapiens, UniProt P49759); assay: Kinase panel; assay type: biochemical
Experimental: as §4, §5, §6

EPHA2 = EPHA2 (Homo sapiens, UniProt P29317); assay: Kinase panel; assay type: biochemical
Experimental: as §4, §5, §6

ERBB2 = ERBB2 (Homo sapiens, UniProt P04626); assay: Kinase panel; assay type: biochemical
Experimental: as §4, §5, §6

FLT1 = FLT1 (Homo sapiens, UniProt P17948); assay: Kinase panel; assay type: biochemical
Experimental: as §4, §5, §6

FRAP1 = FRAP1 (Homo sapiens, UniProt P42345); assay: Kinase panel; assay type: biochemical
Experimental: as §4, §5, §6

JAK1 = JAK1 (Homo sapiens, UniProt P23458); assay: Kinase panel; assay type: biochemical
JAK1, sequence (P23458 whole entry, species assumed): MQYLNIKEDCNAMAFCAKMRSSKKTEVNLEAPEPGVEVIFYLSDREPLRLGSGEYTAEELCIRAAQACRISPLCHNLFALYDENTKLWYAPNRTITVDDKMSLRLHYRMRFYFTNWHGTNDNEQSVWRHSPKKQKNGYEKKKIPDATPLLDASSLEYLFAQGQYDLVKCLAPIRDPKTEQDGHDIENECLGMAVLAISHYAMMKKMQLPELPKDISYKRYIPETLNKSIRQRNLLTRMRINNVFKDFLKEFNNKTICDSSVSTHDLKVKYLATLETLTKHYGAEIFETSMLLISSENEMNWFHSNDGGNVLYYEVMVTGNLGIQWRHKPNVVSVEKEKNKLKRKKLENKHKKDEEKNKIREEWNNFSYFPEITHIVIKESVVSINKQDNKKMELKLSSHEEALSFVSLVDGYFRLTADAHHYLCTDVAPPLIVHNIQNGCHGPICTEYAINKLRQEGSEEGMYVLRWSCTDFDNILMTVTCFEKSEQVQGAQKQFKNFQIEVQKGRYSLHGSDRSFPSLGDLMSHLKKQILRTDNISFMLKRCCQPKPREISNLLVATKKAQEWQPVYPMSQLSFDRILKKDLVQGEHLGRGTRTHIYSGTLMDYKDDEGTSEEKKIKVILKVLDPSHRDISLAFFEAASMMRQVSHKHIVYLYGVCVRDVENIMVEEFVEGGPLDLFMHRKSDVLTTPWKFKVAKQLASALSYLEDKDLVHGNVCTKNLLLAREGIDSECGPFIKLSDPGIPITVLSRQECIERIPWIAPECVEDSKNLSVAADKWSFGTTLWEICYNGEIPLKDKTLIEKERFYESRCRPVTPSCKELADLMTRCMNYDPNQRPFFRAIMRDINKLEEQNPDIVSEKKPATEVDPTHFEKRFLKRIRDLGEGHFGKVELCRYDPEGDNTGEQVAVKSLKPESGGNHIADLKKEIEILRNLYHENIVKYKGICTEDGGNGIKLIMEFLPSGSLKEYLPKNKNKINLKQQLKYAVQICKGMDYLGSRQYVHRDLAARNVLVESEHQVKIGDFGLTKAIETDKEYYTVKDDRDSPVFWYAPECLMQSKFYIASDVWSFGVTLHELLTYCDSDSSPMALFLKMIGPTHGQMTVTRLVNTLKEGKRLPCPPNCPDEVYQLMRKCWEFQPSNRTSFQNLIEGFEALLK
Experimental: as §4, §5, §6

JAK2 = JAK2 (Homo sapiens, UniProt O60674); assay: Kinase panel; assay type: biochemical
Experimental: as §4, §5, §6

LYN B = LYN B (Homo sapiens, UniProt P07948); assay: Kinase panel; assay type: biochemical
LYN B, sequence (P07948 1-491 isoform P07948-2, species assumed): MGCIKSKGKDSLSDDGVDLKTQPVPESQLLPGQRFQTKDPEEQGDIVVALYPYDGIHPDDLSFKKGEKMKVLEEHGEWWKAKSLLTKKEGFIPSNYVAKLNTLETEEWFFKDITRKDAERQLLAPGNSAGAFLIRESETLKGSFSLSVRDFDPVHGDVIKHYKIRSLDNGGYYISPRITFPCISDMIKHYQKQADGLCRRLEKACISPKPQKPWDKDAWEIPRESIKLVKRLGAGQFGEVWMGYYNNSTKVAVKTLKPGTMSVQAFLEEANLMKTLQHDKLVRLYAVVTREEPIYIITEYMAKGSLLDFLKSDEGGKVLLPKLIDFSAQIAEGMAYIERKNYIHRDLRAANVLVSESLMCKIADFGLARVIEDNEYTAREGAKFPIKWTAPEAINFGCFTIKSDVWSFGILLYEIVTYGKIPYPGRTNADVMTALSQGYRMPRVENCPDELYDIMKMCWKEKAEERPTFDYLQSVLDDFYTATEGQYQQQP
Experimental: as §4, §5, §6

MET = MET (Homo sapiens, UniProt P08581); assay: Kinase panel; assay type: biochemical
Experimental: as §4, §5, §6

PAK1 = PAK1 (Homo sapiens, UniProt Q13153); assay: Kinase panel; assay type: biochemical
PAK1, sequence (Q13153 whole entry): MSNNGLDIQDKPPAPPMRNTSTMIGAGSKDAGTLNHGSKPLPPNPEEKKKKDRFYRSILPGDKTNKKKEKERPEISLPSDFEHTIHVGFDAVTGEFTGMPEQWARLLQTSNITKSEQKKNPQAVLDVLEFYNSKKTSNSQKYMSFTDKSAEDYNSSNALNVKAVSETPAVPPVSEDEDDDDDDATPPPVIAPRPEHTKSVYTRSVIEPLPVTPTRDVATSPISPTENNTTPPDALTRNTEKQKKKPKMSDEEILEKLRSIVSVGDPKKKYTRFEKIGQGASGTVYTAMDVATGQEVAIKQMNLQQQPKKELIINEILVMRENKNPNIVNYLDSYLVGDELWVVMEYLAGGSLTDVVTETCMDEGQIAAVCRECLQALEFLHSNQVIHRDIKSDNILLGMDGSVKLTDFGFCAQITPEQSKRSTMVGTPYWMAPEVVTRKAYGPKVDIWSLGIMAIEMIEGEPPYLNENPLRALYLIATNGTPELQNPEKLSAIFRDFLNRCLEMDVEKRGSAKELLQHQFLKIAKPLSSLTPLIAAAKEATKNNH
Experimental: as §4, §5, §6

PDGFRB = PDGFRB (Homo sapiens, UniProt P09619); assay: Kinase panel; assay type: biochemical; settings: 1000 nM test concentration, ATP Km app, average of two measurements
PDGFRB, sequence (P09619 33-1106, species assumed): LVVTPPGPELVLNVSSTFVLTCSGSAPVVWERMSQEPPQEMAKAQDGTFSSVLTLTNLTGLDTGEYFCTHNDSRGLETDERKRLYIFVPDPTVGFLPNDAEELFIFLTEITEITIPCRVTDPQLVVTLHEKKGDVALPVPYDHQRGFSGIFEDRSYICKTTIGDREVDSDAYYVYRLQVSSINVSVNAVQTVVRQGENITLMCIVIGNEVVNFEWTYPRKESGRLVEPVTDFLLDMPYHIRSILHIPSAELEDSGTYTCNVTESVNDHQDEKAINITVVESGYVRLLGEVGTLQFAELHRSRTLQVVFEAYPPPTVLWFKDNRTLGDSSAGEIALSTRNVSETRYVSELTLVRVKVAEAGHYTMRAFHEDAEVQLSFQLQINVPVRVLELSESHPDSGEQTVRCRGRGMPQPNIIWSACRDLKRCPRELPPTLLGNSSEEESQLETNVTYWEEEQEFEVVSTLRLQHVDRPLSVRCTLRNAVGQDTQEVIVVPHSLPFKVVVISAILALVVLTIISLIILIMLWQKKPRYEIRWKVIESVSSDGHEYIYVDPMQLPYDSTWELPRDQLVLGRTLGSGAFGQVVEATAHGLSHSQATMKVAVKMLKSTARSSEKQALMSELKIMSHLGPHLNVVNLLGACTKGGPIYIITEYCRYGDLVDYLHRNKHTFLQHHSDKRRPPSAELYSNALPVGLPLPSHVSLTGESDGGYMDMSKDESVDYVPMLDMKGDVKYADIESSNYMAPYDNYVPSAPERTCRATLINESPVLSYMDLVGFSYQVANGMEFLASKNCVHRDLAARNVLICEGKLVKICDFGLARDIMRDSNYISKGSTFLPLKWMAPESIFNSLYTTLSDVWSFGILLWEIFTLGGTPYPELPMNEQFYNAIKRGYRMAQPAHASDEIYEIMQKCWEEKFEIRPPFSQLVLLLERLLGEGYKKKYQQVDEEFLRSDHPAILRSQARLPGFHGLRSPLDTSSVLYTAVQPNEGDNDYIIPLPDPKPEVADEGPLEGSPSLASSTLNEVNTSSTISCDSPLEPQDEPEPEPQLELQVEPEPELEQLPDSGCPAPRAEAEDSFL
Experimental: as §4, §5, §6

RET = RET (Homo sapiens, UniProt P07949); assay: Kinase panel; assay type: biochemical
RET, sequence (P07949 29-1114, species assumed): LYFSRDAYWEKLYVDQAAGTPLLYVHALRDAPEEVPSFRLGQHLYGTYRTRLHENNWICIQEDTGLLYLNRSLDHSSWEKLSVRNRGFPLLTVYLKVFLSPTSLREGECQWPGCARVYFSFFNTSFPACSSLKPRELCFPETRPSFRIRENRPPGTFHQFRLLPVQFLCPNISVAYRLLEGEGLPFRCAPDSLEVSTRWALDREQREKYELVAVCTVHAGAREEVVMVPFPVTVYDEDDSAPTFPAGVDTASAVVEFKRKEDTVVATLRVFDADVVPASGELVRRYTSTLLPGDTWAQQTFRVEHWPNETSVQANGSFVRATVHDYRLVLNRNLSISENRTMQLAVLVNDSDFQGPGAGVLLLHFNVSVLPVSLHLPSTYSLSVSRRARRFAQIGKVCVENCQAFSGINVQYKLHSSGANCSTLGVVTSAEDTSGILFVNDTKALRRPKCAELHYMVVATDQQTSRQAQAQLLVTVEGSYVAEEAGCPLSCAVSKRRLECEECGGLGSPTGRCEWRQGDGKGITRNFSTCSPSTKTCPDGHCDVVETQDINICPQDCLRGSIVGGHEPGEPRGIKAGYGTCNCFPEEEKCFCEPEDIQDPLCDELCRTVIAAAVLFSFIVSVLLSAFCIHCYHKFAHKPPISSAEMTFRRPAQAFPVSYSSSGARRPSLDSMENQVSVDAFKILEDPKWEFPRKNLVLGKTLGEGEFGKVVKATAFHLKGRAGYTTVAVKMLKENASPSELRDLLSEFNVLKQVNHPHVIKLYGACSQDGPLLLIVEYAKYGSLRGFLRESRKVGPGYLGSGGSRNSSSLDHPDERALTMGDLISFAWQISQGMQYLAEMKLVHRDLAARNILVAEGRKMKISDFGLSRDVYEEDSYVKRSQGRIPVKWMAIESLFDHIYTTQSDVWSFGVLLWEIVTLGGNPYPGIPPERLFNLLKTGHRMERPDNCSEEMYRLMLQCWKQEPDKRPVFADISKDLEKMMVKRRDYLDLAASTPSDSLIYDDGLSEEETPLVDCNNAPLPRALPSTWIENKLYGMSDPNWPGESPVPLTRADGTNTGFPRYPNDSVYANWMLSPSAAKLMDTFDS
Experimental: as §4, §5, §6

YES1 = YES1 (Homo sapiens, UniProt P07947); assay: Kinase panel; assay type: biochemical
Experimental: as §4, §5, §6

Cc1cccc(CN(C)c2ncnc3[nH]c(-c4ccc(NCc5ccc(C(F)(F)F)nc5)nc4)cc23)c1 [Compound 14c, N-Methyl-N-(3-methylbenzyl)-6-(6-(((6-(trifluoromethyl)pyridin-3-yl)methyl)amino)pyridin-3-yl)-7H-pyrrolo[2,3-d]pyrimidin-4-amine]
Kd (cKIT): > 1 µM
Cellular activity in Ba/F3 CSF1R cells (in words) ([1]; Ba/F3 cells dependent on constitutively active CSF1R): completely inactive in cells
IC50 ([1]; Mus musculus, BaF3, Ba/F3 cells dependent on CSF1R, with standard deviation, read-out: Cellular Assay IC50 (μM), Ba/F3 CSF1R): > 10 µM
IC50 [2]: > 10 µM
solubility kinetic (Kinetic solubility): 0.7 µM (≈ 0.352 µg/mL)
MLM in vitro intrinsic clearing [3]: 60.5 µL/min/mg
inhibition at 1 µM (AXL): 4%
inhibition at 1 µM (BLK): 19%
inhibition at 1 µM (CLK1): 3%
inhibition at 1 µM (EPHA2): 23%
inhibition at 1 µM (ERBB2): 9%
inhibition at 1 µM (FLT1): 5%
inhibition at 1 µM (FRAP1): -5%
inhibition at 1 µM (JAK1): -5%
inhibition at 1 µM (JAK2): 4%
inhibition at 1 µM (LYN B): 26%
inhibition at 1 µM (MET): 10%
inhibition at 1 µM (PAK1): 9%
inhibition at 1 µM (PDGFRB): 9%
% inhibition PDGFRB (PDGFRB; 1 µM): 8%
inhibition at 1 µM (RET): 14%
inhibition at 1 µM (YES1): 65%
